# Experimental data from patent publication US20240132513A1, “BENZAZEPINE DERIVATIVES, COMPOSITIONS, AND METHODS FOR TREATING COGNITIVE IMPAIRMENT” (AGENEBIO, INC., priority 2022, published 2024).
# pKi: −log10 of the molar value. Read-outs that look alike come from different tables or passages of the source.
# Tests used:
# [1] = molecular target: T1, GABAA α5 receptor (Rattus norvegicus, UniProt P19969); assay: GABAA α5 receptor occupancy with Ro 15-4513 tracer; assay type: in vivo, Long Evans rats; details: tracer 1 μg/kg, i.v., after vehicle
# T1 construct: from tissue; host or cells: rat brain in vivo; hippocampus versus cerebellum
# From the text: Food and water were available ad libitum.
# [2] = molecular target: α5β3γ2 GABAA R (Homo sapiens, UniProt P18507+P31644); assay: Binding activity on GABAA R: inhibition of [3H]Ro15-1788 binding, α5 containing receptor
# Method in brief: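 Membranes from dexamethasone-induced (0.5 μM, 1 day) Ltk cells stably expressing α5β3γ2 receptors, 0.2 mg/ml protein, incubated with [3H]Ro15-1788 for 1 h at 4 °C in 50 mM KH2PO4/1 mM EDTA/0.2 M KCl, pH 7.4. Nonspecific binding with 10 μM diazepam; bound ligand by GF/B filtration and scintillation counting, triplicates.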
# [3] = molecular target: T2, GABAA R (α5β2γ2) (Homo sapiens, UniProt P18507+P31644); assay: Positive allosteric modulator activity: potentiation of EC20 GABA current in oocytes; assay type: cell-based
# T2 construct: expressed in transfected cells
# Method in brief: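 Xenopus oocytes injected with 1 ng α5:β2:γ2 cDNA (1:1:10 by weight), tested day 2, voltage-clamped at −60 mV under MBS superfusion.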
# [4] = read-out: GABA α5 Functional Data: potentiation, @ 100 nM, EC20 GABA, ranges of the column heads
# [5] = ranges of the column heads, [3H]Ro15-1788, Ltk cell membranes
# [6] = read-out: GABA α5 Functional Data: potentiation
# Sequence of α5β3γ2 GABAA R (P31644 32-462): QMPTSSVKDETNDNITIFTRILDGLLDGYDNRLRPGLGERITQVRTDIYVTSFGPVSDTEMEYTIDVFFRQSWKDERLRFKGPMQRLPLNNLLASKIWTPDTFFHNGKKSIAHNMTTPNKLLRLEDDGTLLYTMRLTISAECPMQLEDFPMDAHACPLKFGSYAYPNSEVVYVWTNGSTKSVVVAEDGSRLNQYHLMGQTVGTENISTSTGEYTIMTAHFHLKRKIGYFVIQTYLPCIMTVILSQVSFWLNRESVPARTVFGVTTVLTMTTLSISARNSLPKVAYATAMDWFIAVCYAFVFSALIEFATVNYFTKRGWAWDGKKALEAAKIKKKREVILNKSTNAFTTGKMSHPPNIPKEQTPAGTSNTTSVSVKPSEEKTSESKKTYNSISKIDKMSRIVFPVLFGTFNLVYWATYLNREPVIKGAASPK
# Sequence of α5β3γ2 GABAA R (P28472 26-473 partner): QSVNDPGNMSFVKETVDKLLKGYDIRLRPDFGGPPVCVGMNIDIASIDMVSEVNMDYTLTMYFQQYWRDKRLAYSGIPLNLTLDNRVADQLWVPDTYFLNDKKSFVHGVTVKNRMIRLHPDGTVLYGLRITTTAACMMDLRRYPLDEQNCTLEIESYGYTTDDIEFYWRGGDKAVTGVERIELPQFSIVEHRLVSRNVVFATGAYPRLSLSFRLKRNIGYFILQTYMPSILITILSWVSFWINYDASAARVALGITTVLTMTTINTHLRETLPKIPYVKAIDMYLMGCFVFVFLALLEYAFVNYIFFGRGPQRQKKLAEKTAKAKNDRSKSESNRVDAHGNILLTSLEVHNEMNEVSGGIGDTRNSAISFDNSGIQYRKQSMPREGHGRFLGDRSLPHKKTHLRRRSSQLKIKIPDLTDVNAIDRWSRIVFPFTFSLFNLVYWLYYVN
# Sequence of α5β3γ2 GABAA R (P18507 40-475): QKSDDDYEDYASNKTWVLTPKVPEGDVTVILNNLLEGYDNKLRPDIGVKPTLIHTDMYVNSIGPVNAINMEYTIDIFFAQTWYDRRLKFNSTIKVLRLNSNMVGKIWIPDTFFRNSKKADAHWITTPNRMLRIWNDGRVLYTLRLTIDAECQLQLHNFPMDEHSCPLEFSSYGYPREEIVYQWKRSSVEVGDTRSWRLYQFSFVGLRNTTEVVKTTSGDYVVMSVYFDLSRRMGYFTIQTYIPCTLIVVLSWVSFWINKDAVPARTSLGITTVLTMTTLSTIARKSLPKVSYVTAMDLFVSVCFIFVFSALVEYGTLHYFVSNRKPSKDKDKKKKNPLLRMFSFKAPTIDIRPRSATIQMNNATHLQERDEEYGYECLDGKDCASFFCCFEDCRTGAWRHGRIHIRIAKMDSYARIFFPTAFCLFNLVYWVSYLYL
# T2 sequence (P31644 32-462): as the sequence (P31644 32-462) above
# T2 sequence (P47870 25-512 partner limits assumed): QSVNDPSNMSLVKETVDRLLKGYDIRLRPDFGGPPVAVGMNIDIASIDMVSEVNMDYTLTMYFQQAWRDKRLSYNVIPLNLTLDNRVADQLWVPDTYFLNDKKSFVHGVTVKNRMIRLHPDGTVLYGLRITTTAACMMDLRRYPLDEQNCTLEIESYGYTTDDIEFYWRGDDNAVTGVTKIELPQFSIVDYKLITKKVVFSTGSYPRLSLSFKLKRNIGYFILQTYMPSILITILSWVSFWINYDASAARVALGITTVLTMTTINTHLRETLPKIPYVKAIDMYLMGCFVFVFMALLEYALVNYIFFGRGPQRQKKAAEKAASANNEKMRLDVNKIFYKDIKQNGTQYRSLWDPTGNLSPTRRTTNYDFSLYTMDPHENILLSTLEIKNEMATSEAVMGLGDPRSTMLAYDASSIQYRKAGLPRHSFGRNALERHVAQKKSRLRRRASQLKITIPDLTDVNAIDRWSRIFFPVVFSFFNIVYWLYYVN
# T2 sequence (P18507 40-475): as the sequence (P18507 40-475) above
# T1 sequence (P19969 32-464 limits assumed): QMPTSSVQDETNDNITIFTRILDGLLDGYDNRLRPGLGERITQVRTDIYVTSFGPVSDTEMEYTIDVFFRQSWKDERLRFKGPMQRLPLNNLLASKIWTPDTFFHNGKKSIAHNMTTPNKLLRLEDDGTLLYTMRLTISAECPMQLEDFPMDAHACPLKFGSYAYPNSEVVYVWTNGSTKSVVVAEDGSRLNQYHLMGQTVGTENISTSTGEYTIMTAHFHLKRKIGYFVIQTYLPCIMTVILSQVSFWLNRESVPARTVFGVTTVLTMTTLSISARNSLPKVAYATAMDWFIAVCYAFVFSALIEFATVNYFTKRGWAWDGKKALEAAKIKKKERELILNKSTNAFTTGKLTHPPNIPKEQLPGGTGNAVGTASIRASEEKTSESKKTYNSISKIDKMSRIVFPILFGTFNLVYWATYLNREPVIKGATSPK
SMILES,pKi [2],"activation at 0.1 µM [3, 4]",further results
CCOC(=O)c1ncn2c1CN(C)C(=O)c1cc(N=[N+]=[N-])ccc1-2 [Ro 15-4513],,,level of Ro 15-4513 in cerebellum [1]: 0.36 ± 0.02 ng/g; level of Ro 15-4513 in hippocampus [1]: 1.93 ± 0.05 ng/g; levels of Ro 15-4513 in hippocampus compared with cerebellum [1]: > 5 fold
Cn1cc2c(n1)-c1cc(Cl)ccc1-n1cnc(-c3noc(C4(F)CC4)n3)c1C2 [Compound 218],> 7.00,20 to 50%,
Cn1cc2c(n1)-c1cc(Cl)ccc1-n1cnc(-c3noc(C4CC4)n3)c1C2 [Compound 142],> 7.00,20 to 50%,
Clc1ccc2c(c1)-c1nn(CC3CCCO3)cc1Cc1c(-c3noc(C4COCCO4)n3)ncn1-2 (centres unmarked) [Compound 305],> 7.00,5 to 20%,
CCn1cc2c(n1)-c1cc(OC)ccc1-n1cnc(-c3noc(C(C)(C)OC)n3)c1C2 [Compound 255],> 7.00,5 to 20%,
COc1ccc2c(c1)-c1nn(CC3CCCO3)cc1Cc1c(-c3noc(COC(C)C)n3)ncn1-2 (centres unmarked) [Compound 301],> 7.00,20 to 50%,
CC(C)c1nc(-c2ncn3c2Cc2cn(C)nc2-c2cc(Cl)ccc2-3)no1 [Compound 141],> 7.00,20 to 50%,
Cn1cc2c(n1)-c1cc(Cl)ccc1-n1cnc(-c3noc(COC4CCCC4)n3)c1C2 [Compound 211],> 7.00,20 to 50%,
COc1ccc2c(c1)-c1nn(Cc3ccccn3)cc1Cc1c(-c3nc(C(C)C)no3)ncn1-2 [Compound 124],> 7.00,20 to 50%,
COc1ccc2c(c1)-c1nn(C)cc1Cc1c(-c3nc(C4COC4)no3)ncn1-2 [Compound 239],> 7.00,20 to 50%,
CC(C)(C)c1noc(-c2ncn3c2Cc2cn[nH]c2-c2cc(Cl)ccc2-3)n1 [Compound 35],> 7.00,20 to 50%,
COCCn1cc2c(n1)-c1cc(Cl)ccc1-n1cnc(-c3nc(C4CC4)no3)c1C2 [Compound 128],> 7.00,5 to 20%,
Cn1cc2c(n1)-c1cc(Cl)ccc1-n1cnc(-c3noc(C4COCCO4)n3)c1C2 (centres unmarked) [Compound 213],> 7.00,> 50%,
COCC1COC(c2ncn3c2Cc2cn(C)nc2-c2cc(Cl)ccc2-3)=N1 (centres unmarked) [Compound 189],> 7.00,20 to 50%,
Cn1cc2c(n1)-c1cc(Cl)ccc1-n1cnc(-c3noc(COCC(F)(F)F)n3)c1C2 [Compound 217],> 7.00,20 to 50%,
Cn1cc2c(n1)-c1cc(Cl)ccc1-n1cnc(-c3noc(C(F)(F)F)n3)c1C2 [Compound 144],> 7.00,20 to 50%,
Cn1cc2c(n1)-c1cc(Cl)ccc1-n1cnc(-c3nc(CN4CCOCC4)no3)c1C2 [Compound 250],,,"pKi [2, 5]: > 7.00; activation at 0.1 µM [3, 6]: > 50%"
CC(C)c1noc(-c2ncn3c2Cc2cn(C)nc2-c2cc(Cl)ccc2-3)n1 [Compound 103],,,"pKi [2, 5]: > 7.00; activation at 0.1 µM [3, 6]: 5 to 20%"
COc1ccc2c(c1)-c1nn(CC3CCCO3)cc1Cc1c(-c3noc(C(C)(C)OC)n3)ncn1-2 (centres unmarked) [Compound 283],> 7.00,> 50%,
Cn1cc2c(n1)-c1cc(Cl)ccc1-n1cnc(-c3noc(C4CCOC4)n3)c1C2 (centres unmarked) [Compound 145],> 7.00,5 to 20%,
Cn1cc2c(n1)-c1cc(Cl)ccc1-n1cnc(C#CC(C)(C)C)c1C2 [Compound 101],> 7.00,20 to 50%,
CCn1cc2c(n1)-c1cc(Cl)ccc1-n1cnc(-c3nc(CN4CCCC4)no3)c1C2 [Compound 266],,5 to 20%,"pKi [2, 5]: > 7.00"
CCn1cc2c(n1)-c1cc(Cl)ccc1-n1cnc(-c3noc(COC(C)(C)C)n3)c1C2 [Compound 197],> 7.00,5 to 20%,
